As a reminder, the inhibition is the relative decrease from the control value, in per cent. Usually EC50 stands for the concentration giving half of the maximal effect. Read a high EC50 as a need for much substance.

Common to all, as to format: cell-based
In assay [1] the test system is SW480 colon cancer cells. Kind of assay: Cell viability assay (CellTiter-Blue) in SW480 colon cancer cells. The settings on record: Homo sapiens, 96 h; for inhibition at 10 µM: four days, CellTiter-Blue, read-out: percent inhibition at 10 μM (given for EC50 of >10 μM); for EC50: four days incubation, CellTiter-Blue cell viability. An outline of the steps:
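About 2×10^3 SW480 colon cancer cells per well were exposed to compound (8-point 1:3 dilutions, 10 μM to 0.004 μM) for four days at 37 °C. Viability was read by CellTiter-Blue resazurin reduction (~3 h, Ex 560/Em 590). EC50 from nonlinear regression; above 10 μM, % inhibition at 10 μM is reported.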
A general note: Alamar Blue is a resazurin reagent that responds to reducing activity.

For assay [2], the system named is LL29 cells (primary human fibroblasts derived from IPF patients) treated with TGF-β1, α-smooth muscle actin. Briefly: Inhibition of the fibrotic process: αSMA staining in TGF-β1 treated primary human fibroblasts from IPF patients (LL29 cells). The settings on record: Fibroblast, 96 h; for EC50: LL29 cells treated with TGF-β1 (20 ng/mL), 4 days; for inhibition at 10 µM: LL29 cells treated with TGF-β1, 4 days, read-out: percent inhibition in brackets (given for EC50 >10 μM).

The test system of assay [3] is IL-6 in THP-1 cells. Kind of assay: Inhibition of IL-6 in LPS-stimulated THP-1 human monocyte cells (HTRF). The settings on record: IL-6 HTRF; for EC50: 500 ng/mL LPS, 22 hours; for inhibition at 10 µM: LPS, read-out: percent inhibition in brackets (given for EC50 >10 μM). Summed up: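 THP-1 cells, serum-reduced (1% FBS) for 24 h, were exposed to compound (1:3, 10-point series from 10 μM; 0.1% DMSO) for 2 h, then 500 ng/mL LPS for 22 h at 37° C. Secreted IL-6 measured by HTRF (665/620 ratio), normalised to DMSO; EC50 by four-parameter fit, else % inhibition at 10 μM.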
On the technique in general: In TR-FRET formats the signal depends on donor and acceptor labels being close together.

The structures appear in SMILES notation.

On to `Cc1cn(-c2cncc3[nH]c(-c4n[nH]c5ccc(-c6cncc(OCCN(C)C)c6)nc45)nc23)cn1` [Compound 599, N,N-Dimethyl-2-((5-(3-(7-(4-methyl-1H-imidazol-1-yl)-3H-imidazo[4,5-c]pyridin-2-yl)-1H-pyrazolo[4,3-b]pyridin-5-yl)pyridin-3-yl)oxy)ethan-1-amine], for which the inhibition at 10 µM stood at 7.1% in assay [1], 15.4% in assay [2] and 22.5% in assay [3]. The EC50 in assay [1], in assay [2] and in assay [3] was > 10 µM in each case.
In the case of `FC1(F)CCN(Cc2cncc(-c3ccc4[nH]nc(-c5nc6c(-c7ccsc7)cncc6[nH]5)c4n3)c2)C1` [Compound 278, 5-(5-((3,3-difluoropyrrolidin-1-yl)methyl)pyridin-3-yl)-3-(7-(thiophen-3-yl)-3H-imidazo[4,5-c]pyridin-2-yl)-1H-pyrazolo[4,3-b]pyridine], the EC50 in assay [1] amounted to 1.02 µM; in assay [2] it was 1.7 µM; in assay [3], 5.79 µM.
The corresponding values for `Cc1ccc(-c2cncc3[nH]c(-c4n[nH]c5ccc(-c6cncc(N)c6)nc45)nc23)s1` [Compound 367, 5-(3-(7-(5-Methylthiophen-2-yl)-3H-imidazo[4,5-c]pyridin-2-yl)-1H-pyrazolo[4,3-b]pyridin-5-yl)pyridin-3-amine] are 0.097 µM, 0.815 µM and 0.125 µM.
As for `Oc1cncc(-c2ccc3[nH]nc(-c4nc5c(N6CCCCC6)cncc5[nH]4)c3n2)c1` [Compound 585, 5-(3-(7-(Piperidin-1-yl)-3H-imidazo[4,5-c]pyridin-2-yl)-1H-pyrazolo[4,3-b]pyridin-5-yl)pyridin-3-ol], the inhibition at 10 µM in assay [1] was 2.4%; in assay [2] it was 39.1%. The EC50 in assay [1] was > 10 µM; in assay [2], > 10 µM; in assay [3], 1.38 µM.
`c1ncc(-c2ccc3[nH]nc(-c4nc5c(N6CCCCC6)cncc5[nH]4)c3n2)cc1OCCN1CCCC1` [Compound 582, 3-(7-(Piperidin-1-yl)-3H-imidazo[4,5-c]pyridin-2-yl)-5-(5-(2-(pyrrolidin-1-yl)ethoxy)pyridin-3-yl)-1H-pyrazolo[4,3-b]pyridine]: the inhibition at 10 µM in assay [1] turned out to be 15.8%. For the same compound, the EC50 in assay [1] was > 10 µM; in assay [2], 3.32 µM; in assay [3], 1.63 µM.
Turning to `CC(C)Nc1cncc(-c2ccc3[nH]nc(-c4nc5c(-c6ccoc6)cncc5[nH]4)c3n2)c1` [Compound 292, 5-(3-(7-(Furan-3-yl)-3H-imidazo[4,5-c]pyridin-2-yl)-1H-pyrazolo[4,3-b]pyridin-5-yl)-N-isopropylpyridin-3-amine], the results for the EC50 in assay [1], in assay [2] and in assay [3] were 0.646 µM, 1.15 µM and 2.56 µM, respectively.
Turning to `Fc1ccccc1-c1cncc2[nH]c(-c3n[nH]c4ccc(-c5ccccn5)nc34)nc12` [Compound 84, 3-(7-(2-Fluorophenyl)-3H-imidazo[4,5-c]pyridin-2-yl)-5-(pyridin-2-yl)-1H-pyrazolo[4,3-b]pyridine], the EC50 is 0.362 µM in assay [1], > 10 µM in assay [2] and > 10 µM in assay [3]. Moreover, the inhibition at 10 µM in assay [2] was determined as 29.7%; in assay [3], 46.8%.
In the case of `c1cc(-c2cncc3[nH]c(-c4n[nH]c5ccc(-c6cncc(CNCC7CCCC7)c6)nc45)nc23)co1` [Compound 305, 1-Cyclopentyl-N-((5-(3-(7-(furan-3-yl)-3H-imidazo[4,5-c]pyridin-2-yl)-1H-pyrazolo[4,3-b]pyridin-5-yl)pyridin-3-yl)methyl)methanamine], the EC50 in assay [1] was 4.61 µM; in assay [2], > 10 µM; in assay [3], > 10 µM. Besides, the inhibition at 10 µM in assay [2] stood at 0%; in assay [3] it was 24.5%.
`Fc1ccc(-c2cncc3[nH]c(-c4n[nH]c5ccc(-c6cncc(CN7CCCC7)c6)nc45)nc23)cc1` [Compound 42, 3-(7-(4-Fluorophenyl)-3H-imidazo[4,5-c]pyrid-2-yl)-5-(5-(pyrrolidin-1-ylmethyl)pyridin-3-yl)-1H-pyrazolo[4,3-b]pyridine]: the EC50 in assay [1] is 1.05 µM; in assay [2] it was 2.47 µM; in assay [3], > 10 µM. Also, in assay [3], the inhibition at 10 µM was found to be 42%.
On to `O=C(Nc1cncc(-c2ccc3[nH]nc(-c4nc5c(-c6cccc(F)c6)cncc5[nH]4)c3n2)c1)C1CC1` [Compound 20, N-(5-(3-(7-(3-Fluorophenyl)-3H-imidazo[4,5-c]pyridin-2-yl)-1H-pyrazolo[4,3-b]pyridin-5-yl)pyridin-3-yl)cyclopropanecarboxamide], for which the values for the inhibition at 10 µM in assay [1], in assay [2] and in assay [3] were 5.1%, 0% and 19.6%, respectively. The EC50 in assay [1], in assay [2] and in assay [3] was > 10 µM in each case.
For the compound `Cc1ncc(-c2ccc3[nH]nc(-c4nc5c(-c6ccoc6)cncc5[nH]4)c3n2)n1C` [Compound 641, 5-(1,2-Dimethyl-1H-imidazol-5-yl)-3-(7-(furan-3-yl)-3H-imidazo[4,5-c]pyridin-2-yl)-1H-pyrazolo[4,3-b]pyridine], the EC50 was 2.88 µM in assay [1], > 10 µM in assay [2] and > 10 µM in assay [3]. Also, the inhibition at 10 µM came to 0% in assay [2] and 8.9% in assay [3].
For the compound `Cc1ccncc1-c1ccc2[nH]nc(-c3nc4c(-c5ccsc5)cncc4[nH]3)c2n1` [Compound 257, 5-(4-Methylpyridin-3-yl)-3-(7-(thiophen-3-yl)-3H-imidazo[4,5-c]pyridin-2-yl)-1H-pyrazolo[4,3-b]pyridine], the EC50 in assay [1] was 0.856 µM; in assay [2], 8.55 µM; in assay [3], > 10 µM. In addition, the inhibition at 10 µM in assay [3] worked out at 11.5%.
On to `Cc1ccncc1-c1ccc2[nH]nc(-c3nc4c(-c5cc(F)cc(CNS(C)(=O)=O)c5)cncc4[nH]3)c2n1` [Compound 453, N-(3-Fluoro-5-(2-(5-(4-methylpyridin-3-yl)-1H-pyrazolo[4,3-b]pyridin-3-yl)-3H-imidazo[4,5-c]pyridin-7-yl)benzyl)methanesulfonamide], for which the inhibition at 10 µM in assay [1] came out at 37.3%; in assay [2], 0%; in assay [3], 23.9%. Moreover, the EC50 in assay [1], in assay [2] and in assay [3] was > 10 µM throughout.
With `CN1CCN(c2cncc3[nH]c(-c4n[nH]c5ccc(-c6cnccn6)nc45)nc23)CC1` [Compound 620, 3-(7-(4-Methylpiperazin-1-yl)-3H-imidazo[4,5-c]pyridin-2-yl)-5-(pyrazin-2-yl)-1H-pyrazolo[4,3-b]pyridine], the inhibition at 10 µM in assay [1] was 48.8%; in assay [2], 34.1%; in assay [3], 30.6%. Also, the EC50 in assay [1], in assay [2] and in assay [3] was > 10 µM each time.
As for `CN(C)CCOc1cncc(-c2ccc3[nH]nc(-c4nc5c(-c6cccc(F)c6)cncc5[nH]4)c3n2)c1` [Compound 487, 2-((5-(3-(7-(3-Fluorophenyl)-3H-imidazo[4,5-c]pyridin-2-yl)-1H-pyrazolo[4,3-b]pyridin-5-yl)pyridin-3-yl)oxy)-N,N-dimethylethan-1-amine], the EC50 in assay [1] was 5.54 µM; in assay [2], > 10 µM; in assay [3], > 10 µM. The inhibition at 10 µM in assay [2] is 30.7%; in assay [3] it was 33.4%.
As to `Cc1cn(-c2cncc3[nH]c(-c4n[nH]c5ccc(C6=CCNCC6)nc45)nc23)cn1` [Compound 590, 3-(7-(4-Methyl-1H-imidazol-1-yl)-3H-imidazo[4,5-c]pyridin-2-yl)-5-(1,2,3,6-tetrahydropyridin-4-yl)-1H-pyrazolo[4,3-b]pyridine], the inhibition at 10 µM came out at 10% in assay [1], 36.8% in assay [2] and 11.5% in assay [3]. The EC50 in assay [1], in assay [2] and in assay [3] was > 10 µM each time.
With `Clc1ccc(-c2cncc3[nH]c(-c4n[nH]c5ccc(-c6cncc(CN7CCCC7)c6)nc45)nc23)s1` [Compound 1004, 3-(7-(5-Chlorothiophen-2-yl)-3H-imidazo[4,5-c]pyridin-2-yl)-5-(5-(pyrrolidin-1-ylmethyl)pyridin-3-yl)-1H-pyrazolo[4,3-b]pyridine], the EC50 in assay [1] was 2.94 µM; in assay [2], 3.47 µM; in assay [3] it was > 10 µM. Further, the inhibition at 10 µM in assay [3] was determined as 29.8%.
For `COc1cncc(-c2ccc3[nH]nc(-c4nc5c(-c6cccc(F)c6)cncc5[nH]4)c3n2)c1` [Compound 488, 3-(7-(3-Fluorophenyl)-3H-imidazo[4,5-c]pyridin-2-yl)-5-(5-methoxylpyridin-3-yl)-1H-pyrazolo[4,3-b]pyridine], the figures for the inhibition at 10 µM in assay [1], in assay [2] and in assay [3] were 0%, 0% and 43%, respectively. The EC50 in assay [1], in assay [2] and in assay [3] was > 10 µM each time.

Values taken from patent US10188634B2, “3-(3H-imidazo[4,5-C]pyridin-2-yl)-1 H-pyrazolo[4,3-B]pyridines and therapeutic uses thereof” (Samumed, LLC, priority 2015, dated 2019).
